Measured values reported in US20110098261A1, “TRITERPENOID-BASED COMPOUNDS USEFUL AS VIRUS INHIBITORS” (priority 2008, published 2011).
Like-named read-outs stand apart in the source and are kept apart here.

What was measured:
[1] = tested on: avian influenza virus KBNP-0028 (KCTC 10866BP); assay type: cell-based, A/chicken/Korea/SNU0028/2000(H9N2)
[2] = tested on: chicken embryo fibroblast (CEF) cells

C=C(C)[C@@H]1CC[C@]2(C=O)CC[C@]3(C)[C@H](CC[C@@H]4[C@@]5(C)CC[C@H](O)C(C)(C)[C@@H]5CC[C@]43C)[C@@H]12 [12B-AJ-26A, betulinic aldehyde]
Antiviral activity (in words) [1]: showed antiviral activity | Cytotoxicity assay (absorbance) ([2]; 6.25 μg/mL): 0.352 | Cytotoxicity assay (absorbance) ([2]; 12.5 μg/mL): 0.326 | Cytotoxicity assay (absorbance) ([2]; 25 μg/mL): 0.324 | Cytotoxicity assay (absorbance) ([2]; 50 μg/mL): 0.325 | Cytotoxicity assay (absorbance) ([2]; 100 μg/mL): 0.434 | Cytotoxicity assay (absorbance) ([2]; 200 μg/mL): 0.421
